These results are taken from patent publication US20250098675A1, “A METHOD OF CONTROLLING RESISTANT AND NON-RESISTANT PESTS” (UPL CORPORATION LIMITED, priority 2021, published 2025).

SMILES strings stand for the structures. Where two headings read alike, the source gives them in different places.

Assay type in all cases: in vivo
Data set [1] relates to resistant Mahanarva fimbriolata. Kind of data set: Greenhouse pot trial, drench, mortality of resistant nymphs. The following applies: for mortality at 400 g/ha / mortality at 250 g/ha: Mahanarva fimbriolata, soil; for mortality at 400 g/ha: read-out: Mortality (%) of Nymphs-Resistant population % Mortality, 400 g.a.i/ha; for mortality at 250 g/ha: read-out: Mortality (%) of Nymphs-Resistant population % Mortality, 250 g.a.i/ha. As for the experimental part:
The sugarcane plants were sown under greenhouse in pots. Artificially, each pot was infested with 10 nymphs in 3rd/4th instar. Infestation was done 24 h before of application for insect acclimatization. The treatments were applied via drenching, after infestation. The assessments were made at 3 and 5 days after infestation in 4 replications.

The test system of a further data set is Mahanarva fimbriolata. Kind of data set: Field trial, % control of Mahanarva fimbriolata nymphs and adult insects in sugarcane. The method, then: Trials were carried out in field to assess efficacy of flupyrimin against Mahanarva fimbriolata. Evaluation was done to check % control of nymphs and adult insects at intervals of 30 DAA and 60 DAA (for nymphs) and 7, 30 and 60 DAA (for adult insects). The efficacy was compared with standard insecticides thiamethoxam and ethiprole.

Another data set deals with adult Sphenophorus levis. Kind of data set: Control efficacy against adults, plots sprayed. As for the experimental part: The efficacy of flupyrimin was determined against adult and the larvae stage of Sphenophorus levis. To evaluate the efficacy of flupyrimin plots with ten Sphenophorus levis adults were populated. Flupyrimin at a concentration of 500 g/L was used to treat the plots by spraying. Each plot received a 10 cm splitted lengthwise suarcane stem piece as feed and accordingly each plot was subjected to treatment conditions as depicted in the table below.

Data set [2] has as its system larvae Sphenophorus levis. Description: Larvae bioassay, residual contact and ingestion, dipped sugarcane stalks. Particulars: for Larvae efficacy control (%): 1DAA. As for the experimental part: The efficacy of flupyrimin was determined against the larvae stage of Sphenophorus levis. Accordingly, the larvae bioassay method was residual contact and ingestion. The sugarcane stalks were dipped in a insecticide solution then placed on a papart towel to dry. The sugarcane stalks were placed in glass tubes, then S. levis first stage and last instar lavae were introduced in each tube separately. The mortality achieved was 100% at 1 DAA. The treatments condidtions and the results are depicted in Table 8 below: […]

Turning to `CC[S+]([O-])c1c(C#N)nn(-c2c(Cl)cc(C(F)(F)F)cc2Cl)c1N` (centres unmarked) [Ethiprole, ethiprole], the figures for the mortality at 400 g/ha in data set [1] (0 DAA 3 DAI) and in data set [1] (0 DAA 5 DAI) were 33% and 45%, respectively. Besides, the “Adults % Control” value with Mahanarva fimbriolata (400 g a.i./ha, 7 DAA) was determined as 100%; with Mahanarva fimbriolata (400 g a.i./ha, 30 DAA), 100%; in the data set with Mahanarva fimbriolata (400 g a.i./ha, 60 DAA), 100%. Moreover, the “Nymphs % Control” value is 95% in the data set on Mahanarva fimbriolata (400 g a.i./ha, 30 DAA) and 100% in the data set on Mahanarva fimbriolata (400 g a.i./ha, 60 DAA).
For the compound `O=C(N=c1ccccn1Cc1ccc(Cl)nc1)C(F)(F)F` [Flupyrimin, flupyrimin], the “Mortality (%) of Nymphs-Resistant population % Mortality” value in data set [1] (150 g.a.i/ha, 0 DAA 3 DAI) is 85%; in data set [1] (150 g.a.i/ha, 0 DAA 5 DAI), 98%; in data set [1] (200 g.a.i/ha, 0 DAA 3 DAI), 97%; in data set [1] (200 g.a.i/ha, 0 DAA 5 DAI), 100%; in data set [1] (250 g.a.i/ha, 0 DAA 3 DAI), 98%; in data set [1] (250 g.a.i/ha, 0 DAA 5 DAI), 98%. Besides, the “Mortality (%) of Nymphs-Resistant population % Mortality” value was 97% in data set [1] (300 g.a.i/ha, 0 DAA 3 DAI) and 100% in data set [1] (300 g.a.i/ha, 0 DAA 5 DAI). For the same compound, the “control of resistant nymphs (in words)” value in data set [1] (summary of the table, no dose stated) is on record as “effective in completely controlling resistant nymphs”. Moreover, the “control of S. levis adults (in words)” value in the data set with adult Sphenophorus levis (9 DAA, no dose stated) is “almost complete control”. The “Adults efficacy control (%)” value is 46.3% in the data set on adult Sphenophorus levis (150 g of a.i/ha (0.30 kg-l/ha), 1DAA); 75.1% in the data set with adult Sphenophorus levis (150 g of a.i/ha (0.30 kg-l/ha), second value column, time not printed); 97.3% in the data set on adult Sphenophorus levis (150 g of a.i/ha (0.30 kg-l/ha), third value column, time not printed); 61.0% in the data set on adult Sphenophorus levis (250 g of a.i/ha (0.50 kg-l/ha), 1DAA); 80.9% in the data set with adult Sphenophorus levis (250 g of a.i/ha (0.50 kg-l/ha), second value column, time not printed); 100% in the data set on adult Sphenophorus levis (250 g of a.i/ha (0.50 kg-l/ha), third value column, time not printed). Besides, the “Adults efficacy control (%)” value is recorded as 59.5% in the data set on adult Sphenophorus levis (300 g of a.i/ha (0.60 kg-l/ha), 1DAA); 79.5% in the data set with adult Sphenophorus levis (300 g of a.i/ha (0.60 kg-l/ha), second value column, time not printed); 99.1% with adult Sphenophorus levis (300 g of a.i/ha (0.60 kg-l/ha), third value column, time not printed); 56.9% with adult Sphenophorus levis (500 g of a.i/ha (1.00 kg-l/ha), 1DAA); 79.9% in the data set on adult Sphenophorus levis (500 g of a.i/ha (1.00 kg-l/ha), second value column, time not printed); 97.3% with adult Sphenophorus levis (500 g of a.i/ha (1.00 kg-l/ha), third value column, time not printed). The “Adults % Control” value was found to be 80% in the data set on Mahanarva fimbriolata (150 g a.i./ha, 7 DAA); 100% in the data set with Mahanarva fimbriolata (150 g a.i./ha, 30 DAA); 75% with Mahanarva fimbriolata (150 g a.i./ha, 60 DAA); 80% in the data set on Mahanarva fimbriolata (200 g a.i./ha, 7 DAA); 50% with Mahanarva fimbriolata (200 g a.i./ha, 30 DAA); 100% in the data set on Mahanarva fimbriolata (200 g a.i./ha, 60 DAA). Moreover, the “Adults % Control” value in the data set on Mahanarva fimbriolata (250 g a.i./ha, 7 DAA) is 60%; in the data set on Mahanarva fimbriolata (250 g a.i./ha, 30 DAA), 100%; in the data set on Mahanarva fimbriolata (250 g a.i./ha, 60 DAA) it was 50%; in the data set on Mahanarva fimbriolata (300 g a.i./ha, 7 DAA) it was 40%; with Mahanarva fimbriolata (300 g a.i./ha, 30 DAA), 25%; with Mahanarva fimbriolata (300 g a.i./ha, 60 DAA) it was 100%. In addition, the “Nymphs % Control” value in the data set on Mahanarva fimbriolata (150 g a.i./ha, 30 DAA) came out at 62%; with Mahanarva fimbriolata (150 g a.i./ha, 60 DAA), 95%; with Mahanarva fimbriolata (200 g a.i./ha, 30 DAA) it was 97%; with Mahanarva fimbriolata (200 g a.i./ha, 60 DAA), 95%; in the data set on Mahanarva fimbriolata (250 g a.i./ha, 30 DAA), 92%; in the data set on Mahanarva fimbriolata (250 g a.i./ha, 60 DAA), 100%. Further, the “Nymphs % Control” value is on record as “complete control” with Mahanarva fimbriolata (250 g a.i./ha, 60 DAA, listed as flupyrimin); 81% in the data set with Mahanarva fimbriolata (300 g a.i./ha, 30 DAA); 95% with Mahanarva fimbriolata (300 g a.i./ha, 60 DAA). The “Larvae efficacy control (%)” value in data set [2] (150 g of a.i/ha (0.30 kg-l/ha)), in data set [2] (250 g of a.i/ha (0.50 kg-l/ha)), in data set [2] (300 g of a.i/ha (0.60 kg-l/ha)) and in data set [2] (500 g of a.i/ha (1.00 kg-l/ha)) was 100% throughout. Besides, the “mortality of S. levis larvae” value in data set [2] (first stage and last instar larvae, 1 DAA, no dose stated) was found to be 100%.
Consider `CN1COCN(Cc2cnc(Cl)s2)/C1=N\[N+](=O)[O-]` [Thiamethoxam, thiamethoxam], for which the mortality at 250 g/ha in data set [1] (0 DAA 3 DAI) is 23%; in data set [1] (0 DAA 5 DAI), 25%. Also, the “Adults % Control” value with Mahanarva fimbriolata (250 g a.i./ha, 7 DAA) was 60%; in the data set with Mahanarva fimbriolata (250 g a.i./ha, 30 DAA), 50%; in the data set with Mahanarva fimbriolata (250 g a.i./ha, 60 DAA), 75%. Besides, the “Nymphs % Control” value in the data set with Mahanarva fimbriolata (250 g a.i./ha, 30 DAA) is listed as 86%; in the data set on Mahanarva fimbriolata (250 g a.i./ha, 60 DAA) it was 90%.
